From US20180000085A1, “USE OF PICOLINAMIDE COMPOUNDS WITH FUNGICIDAL ACTIVITY” (DOW AGROSCIENCES LLC, priority 2014, published 2018)

How the values were obtained:
Zymoseptoria tritici = assay: Leaf blotch of wheat (SEPTTR) disease control on wheat seedlings; type: in vivo; design: key to SEPTTR 1DP, HV activity at 100 ppm (% control rating) / SEPTTR 3DC, HV activity at 100 ppm (% control rating) / SEPTTR disease control, 1DP / SEPTTR disease control, 3DC / SEPTTR 1DP disease control rating, HV activity / SEPTTR 3DC disease control rating, HV activity / SEPTTR 3DC, LV activity at 125.1 g/H (% Control rating) / SEPTTR 1DP, LV activity at 125.1 g/H (% Control rating) / SEPTTR 1DP disease control rating, LV activity at 125.1 g/H / SEPTTR 3DC disease control rating, LV activity at 125.1 g/H / SEPTTR 3DC disease control rating, HV activity at 100 ppm / SEPTTR 1DP disease control rating, HV activity at 100 ppm / HV activity at 100 ppm SEPTTR 3DC (disease control rating) / HV activity at 100 ppm SEPTTR 1DP (disease control rating) / LV activity at 125.1 g/H SEPTTR 1DP (disease control rating) / LV activity at 125.1 g/H SEPTTR 3DC (disease control rating): A: > 80; B: ≤ 80; C: Not Tested; D: No Activity Observed in the Reported Assay; details: for HV activity at 100 ppm SEPTTR 1DP (disease control rating) / HV activity at 100 ppm SEPTTR 3DC (disease control rating): HV application; for HV activity at 100 ppm SEPTTR 1DP (disease control rating) / SEPTTR 1DP, LV activity at 125.1 g/H (% Control rating) / SEPTTR 1DP disease control rating, HV activity: 1 Day Protectant; for HV activity at 100 ppm SEPTTR 1DP (disease control rating) / HV activity at 100 ppm SEPTTR 3DC (disease control rating) / SEPTTR 1DP disease control rating, HV activity / SEPTTR 3DC disease control rating, HV activity: wheat leaf blotch; for HV activity at 100 ppm SEPTTR 3DC (disease control rating) / SEPTTR 3DC, LV activity at 125.1 g/H (% Control rating) / SEPTTR 3DC disease control rating, HV activity: 3 Day Curative; for SEPTTR 1DP disease control rating, LV activity at 125.1 g/H / SEPTTR 3DC disease control rating, LV activity at 125.1 g/H / SEPTTR 1DP, LV activity at 125.1 g/H (% Control rating) / SEPTTR 3DC, LV activity at 125.1 g/H (% Control rating): low volume application; for SEPTTR 1DP disease control rating, HV activity / SEPTTR 3DC disease control rating, HV activity: HV application at 100 ppm
Puccinia triticina = assay: Wheat brown rust (PUCCRT) disease control on wheat seedlings; type: in vivo; design: key to PUCCRT 3DC, HV activity at 100 ppm (% control rating) / PUCCRT disease control, 3DC / PUCCRT 1DP disease control rating, HV activity / PUCCRT 3DC disease control rating, HV activity / PUCCRT 3DC, LV activity at 125.1 g/H (% Control rating) / PUCCRT 1DP, LV activity at 125.1 g/H (% Control rating) / PUCCRT 3DC disease control rating, LV activity at 125.1 g/H / PUCCRT 1DP disease control rating, LV activity at 125.1 g/H / PUCCRT 3DC disease control rating, HV activity at 100 ppm / PUCCRT 1DP disease control rating, HV activity at 100 ppm / HV activity at 100 ppm PUCCRT 3DC (disease control rating) / LV activity at 125.1 g/H PUCCRT 1DP (disease control rating) / LV activity at 125.1 g/H PUCCRT 3DC (disease control rating): A: > 80; B: ≤ 80; C: Not Tested; D: No Activity Observed in the Reported Assay; details: for HV activity at 100 ppm PUCCRT 1DP (disease control rating) / HV activity at 100 ppm PUCCRT 3DC (disease control rating): HV application; for HV activity at 100 ppm PUCCRT 1DP (disease control rating) / PUCCRT 1DP, LV activity at 125.1 g/H (% Control rating) / PUCCRT 1DP disease control rating, HV activity: 1 Day Protectant; for HV activity at 100 ppm PUCCRT 1DP (disease control rating) / HV activity at 100 ppm PUCCRT 3DC (disease control rating) / PUCCRT 1DP disease control rating, HV activity / PUCCRT 3DC disease control rating, HV activity: wheat brown rust; for HV activity at 100 ppm PUCCRT 3DC (disease control rating) / PUCCRT 3DC, LV activity at 125.1 g/H (% Control rating) / PUCCRT 3DC disease control rating, HV activity: 3 Day Curative; for PUCCRT 1DP disease control rating, LV activity at 125.1 g/H / PUCCRT 3DC disease control rating, LV activity at 125.1 g/H / PUCCRT 1DP, LV activity at 125.1 g/H (% Control rating) / PUCCRT 3DC, LV activity at 125.1 g/H (% Control rating): low volume application; for PUCCRT 1DP disease control rating, HV activity / PUCCRT 3DC disease control rating, HV activity: HV application at 100 ppm
[1] = high volume application, 100 ppm, 1 day protectant
[2] = high volume application, 100 ppm, 3 day curative

CCC[C@@H](Oc1ccc(C)cc1)[C@H](C)OC(=O)[C@H](C)NC(=O)c1nccc(OC)c1O [Cmpd 1012]
SEPTTR 1DP disease control rating, HV activity at 100 ppm (Zymoseptoria tritici; [1]): B (≤ 80) | SEPTTR 3DC disease control rating, HV activity at 100 ppm (Zymoseptoria tritici; [2]): B (≤ 80) | PUCCRT 1DP disease control rating, HV activity at 100 ppm (Puccinia triticina; [1]): A (> 80) | PUCCRT 3DC disease control rating, HV activity at 100 ppm (Puccinia triticina; [2]): A (> 80)

COc1ccnc(C(=O)N[C@@H](C)C(=O)O[C@@H](C)[C@@H](CC(C)C)Oc2cccc(Cl)c2)c1O [Cmpd 1050]
HV activity at 100 ppm SEPTTR 1DP (disease control rating) (Zymoseptoria tritici; 100 ppm): A (> 80) | HV activity at 100 ppm SEPTTR 3DC (disease control rating) (Zymoseptoria tritici; 100 ppm): A (> 80) | HV activity at 100 ppm PUCCRT 1DP (disease control rating) (Puccinia triticina; 100 ppm): A (> 80) | HV activity at 100 ppm PUCCRT 3DC (disease control rating) (Puccinia triticina; 100 ppm): A (> 80)

COc1ccnc(C(=O)N[C@@H](C)C(=O)O[C@@H](C)[C@@H](Oc2cccc3ccccc23)C(C)C)c1OCOC(C)=O [Cmpd 854]
SEPTTR 1DP disease control rating, LV activity at 125.1 g/H (Zymoseptoria tritici; 1 day protectant): B (≤ 80) | SEPTTR 3DC disease control rating, LV activity at 125.1 g/H (Zymoseptoria tritici; 3 day curative): A (> 80) | PUCCRT 1DP disease control rating, LV activity at 125.1 g/H (Puccinia triticina; 1 day protectant): A (> 80) | PUCCRT 3DC disease control rating, LV activity at 125.1 g/H (Puccinia triticina; 3 day curative): B (≤ 80)

CCCO[C@@H]([C@H](C)OC(=O)[C@H](C)NC(=O)c1nccc(OC)c1OCOC(C)=O)[C@H](CC)Oc1ccccc1 [Cmpd 510]
SEPTTR 1DP, LV activity at 125.1 g/H (% Control rating) (Zymoseptoria tritici): A (> 80) | SEPTTR 3DC, LV activity at 125.1 g/H (% Control rating) (Zymoseptoria tritici): B (≤ 80) | PUCCRT 1DP, LV activity at 125.1 g/H (% Control rating) (Puccinia triticina): A (> 80) | PUCCRT 3DC, LV activity at 125.1 g/H (% Control rating) (Puccinia triticina): A (> 80)

CCC(CC)C(Oc1cc(F)cc(Cl)c1)C(C)OC(=O)C(C)NC(=O)c1nccc(OC)c1OC(C)=O (stereo not shown) [Cmpd 677]
SEPTTR 1DP disease control rating, LV activity at 125.1 g/H (Zymoseptoria tritici; 1 day protectant): B (≤ 80) | SEPTTR 3DC disease control rating, LV activity at 125.1 g/H (Zymoseptoria tritici; 3 day curative): B (≤ 80) | PUCCRT 1DP disease control rating, LV activity at 125.1 g/H (Puccinia triticina; 1 day protectant): B (≤ 80) | PUCCRT 3DC disease control rating, LV activity at 125.1 g/H (Puccinia triticina; 3 day curative): B (≤ 80)

CCCOCC(C)OC(=O)C(C)NC(=O)c1nccc(OC)c1OC(C)=O (stereo not shown) [Cmpd 521]
SEPTTR 1DP, LV activity at 125.1 g/H (% Control rating) (Zymoseptoria tritici): D | SEPTTR 3DC, LV activity at 125.1 g/H (% Control rating) (Zymoseptoria tritici): D | PUCCRT 1DP, LV activity at 125.1 g/H (% Control rating) (Puccinia triticina): D | PUCCRT 3DC, LV activity at 125.1 g/H (% Control rating) (Puccinia triticina): D

COc1ccnc(C(=O)N[C@@H](C)C(=O)O[C@@H](C)[C@@H](CC(C)C)Oc2ccc(Cl)cc2)c1O [Cmpd 1047]
HV activity at 100 ppm SEPTTR 1DP (disease control rating) (Zymoseptoria tritici; 100 ppm): B (≤ 80) | HV activity at 100 ppm SEPTTR 3DC (disease control rating) (Zymoseptoria tritici; 100 ppm): A (> 80) | HV activity at 100 ppm PUCCRT 1DP (disease control rating) (Puccinia triticina; 100 ppm): A (> 80) | HV activity at 100 ppm PUCCRT 3DC (disease control rating) (Puccinia triticina; 100 ppm): A (> 80)

CC(=O)OCOc1c(Cl)ccnc1C(=O)NC(C)C(=O)OC(C)C(Oc1ccccc1)C(C)C (stereo not shown) [Cmpd 679]
SEPTTR 1DP disease control rating, LV activity at 125.1 g/H (Zymoseptoria tritici; 1 day protectant): D | SEPTTR 3DC disease control rating, LV activity at 125.1 g/H (Zymoseptoria tritici; 3 day curative): B (≤ 80) | PUCCRT 1DP disease control rating, LV activity at 125.1 g/H (Puccinia triticina; 1 day protectant): B (≤ 80) | PUCCRT 3DC disease control rating, LV activity at 125.1 g/H (Puccinia triticina; 3 day curative): D

CCC(CC)C(Oc1ccc(Cl)cc1)C(C)OC(=O)C(CC(C)C)NC(=O)c1nccc(OC)c1O (stereo not shown) [Cmpd 427]
SEPTTR 1DP disease control rating, HV activity (Zymoseptoria tritici): D | SEPTTR 3DC disease control rating, HV activity (Zymoseptoria tritici): D | PUCCRT 1DP disease control rating, HV activity (Puccinia triticina): B (≤ 80) | PUCCRT 3DC disease control rating, HV activity (Puccinia triticina): D

CCC(CC)C(Oc1cc(F)ccc1F)C(C)OC(=O)C(C)NC(=O)c1nccc(OC)c1O (stereo not shown) [Cmpd 422]
SEPTTR 1DP disease control rating, HV activity (Zymoseptoria tritici): A (> 80) | SEPTTR 3DC disease control rating, HV activity (Zymoseptoria tritici): B (≤ 80) | PUCCRT 1DP disease control rating, HV activity (Puccinia triticina): A (> 80) | PUCCRT 3DC disease control rating, HV activity (Puccinia triticina): B (≤ 80)
